Laboratory results: US8299035B2, “10a-azalide compound having 4-membered ring structure” (Taisho Pharmaceutucal Co., Ltd., priority 2008, dated 2012)
In brackets after ≈: the same amount, converted by molar mass.

Legend:
Assay in all cases: In vitro antibacterial activity, microbroth dilution method (CLSI method)
Format in all cases: cell-based
H. influenzae ATCC 43095 = details: bacteria symbol A = H. influenzae ATCC 43095
Experimental: (§1) In vitro antibacterial activities of the compounds of the present invention against various test bacteria were measured according to the microbroth dilution method (CLSI method). The exemplary compounds shown in Table 9 and the comparative agent 1, clarithromycin, were used as test substances. The results are shown as MIC values (minimum inhibitory concentration, μg/ml) in Table 9. [table]

[1] = tested on: S. pneumoniae ATCC 700904; details: bacteria symbol D = S. pneumoniae ATCC 700904
Experimental: as §1

H. influenzae Rd = details: bacteria symbol B = H. influenzae Rd
Experimental: as §1

S. pneumoniae ATCC 49619 = details: bacteria symbol C = S. pneumoniae ATCC 49619
Experimental: as §1

## CO[C@]1(C)C[C@H](O[C@H]2[C@H](C)[C@@H](O[C@@H]3O[C@H](C)C[C@H](N(C)C)[C@H]3O)[C@@](C)(OC)C[C@@H](C)[C@H](O)[C@H](C)N3CC(C3)OC(=O)[C@@H]2C)O[C@@H](C)[C@@H]1O (mixture of isomers) [Example 1]
H. influenzae ATCC 43095
  MIC values (minimum inhibitory concentration): 0.5 µg/mL
[1]
  MIC values (minimum inhibitory concentration): >128 µg/mL
H. influenzae Rd
  MIC values (minimum inhibitory concentration): 1 µg/mL
S. pneumoniae ATCC 49619
  MIC values (minimum inhibitory concentration): 0.12 µg/mL

## CC[C@H]1OC(=O)[C@H](C)[C@@H](O[C@H]2C[C@@](C)(OC)[C@@H](O)[C@H](C)O2)[C@H](C)[C@@H](O[C@@H]2O[C@H](C)C[C@H](N(C)C)[C@H]2O)[C@](C)(OC)C[C@@H](C)C(=O)[C@H](C)[C@@H](O)[C@]1(C)O [Comparative agent 1, clarithromycin, reference compound]
H. influenzae ATCC 43095; Haemophilus influenzae, ATCC43095, read-out: MIC values (minimum inhibitory concentration)
  MIC: 4 µg/mL (≈ 5.35 µM)
[1]; Streptococcus pneumoniae, ATCC700904, read-out: MIC values (minimum inhibitory concentration)
  MIC: > 128 µg/mL
H. influenzae Rd; Haemophilus influenzae, read-out: MIC values (minimum inhibitory concentration)
  MIC: 8 µg/mL (≈ 10.7 µM)
S. pneumoniae ATCC 49619; Streptococcus pneumoniae, ATCC49619, read-out: MIC values (minimum inhibitory concentration)
  MIC: 0.03 µg/mL (≈ 0.0401 µM)

## CCN(CCNC(=O)O[C@H]1[C@H](C)O[C@@H](O[C@H]2[C@H](C)[C@@H](O[C@@H]3O[C@H](C)C[C@H](N(C)C)[C@H]3O)[C@@](C)(OC)C[C@@H](C)[C@H](O)[C@H](C)N3CC(C3)OC(=O)[C@@H]2C)C[C@@]1(C)OC)[C@@H](C)c1ccccc1OC [Example 2]
H. influenzae ATCC 43095
  MIC values (minimum inhibitory concentration): 4 µg/mL (≈ 4.27 µM)
[1]
  MIC values (minimum inhibitory concentration): 0.25 µg/mL (≈ 0.267 µM)
H. influenzae Rd
  MIC values (minimum inhibitory concentration): 8 µg/mL (≈ 8.54 µM)
S. pneumoniae ATCC 49619
  MIC values (minimum inhibitory concentration): 0.06 µg/mL (≈ 0.064 µM)

## CCN(CCNC[C@@]1(O)[C@H](C)O[C@@H](O[C@H]2[C@H](C)[C@@H](O[C@@H]3O[C@H](C)C[C@H](N(C)C)[C@H]3O)[C@@](C)(OC)C[C@@H](C)[C@H](O)[C@H](C)N3CC(C3)OC(=O)[C@@H]2C)C[C@@]1(C)OC)[C@@H](C)c1ccccc1OC [Example 3]
H. influenzae ATCC 43095
  MIC values (minimum inhibitory concentration): 4 µg/mL (≈ 4.33 µM)
[1]
  MIC values (minimum inhibitory concentration): 0.12 µg/mL (≈ 0.13 µM)
H. influenzae Rd
  MIC values (minimum inhibitory concentration): 4 µg/mL (≈ 4.33 µM)
S. pneumoniae ATCC 49619
  MIC values (minimum inhibitory concentration): 0.03 µg/mL (≈ 0.0325 µM)

## CCN(CCNC[C@@]1(O)[C@H](C)O[C@@H](O[C@H]2[C@H](C)[C@@H](O[C@@H]3O[C@H](C)C[C@H](N(C)C)[C@H]3O)[C@@](C)(OC)C[C@@H](C)C(=O)[C@H](C)N3CC(C3)OC(=O)[C@@H]2C)C[C@@]1(C)OC)[C@@H](C)c1ccccc1OC [Example 5]
H. influenzae ATCC 43095
  MIC values (minimum inhibitory concentration): 4 µg/mL (≈ 4.34 µM)
[1]
  MIC values (minimum inhibitory concentration): 0.5 µg/mL (≈ 0.543 µM)
H. influenzae Rd
  MIC values (minimum inhibitory concentration): 8 µg/mL (≈ 8.68 µM)
S. pneumoniae ATCC 49619
  MIC values (minimum inhibitory concentration): 0.03 µg/mL (≈ 0.0326 µM)

## CCN(CCNC(=O)O[C@H]1[C@H](C)O[C@@H](O[C@H]2[C@H](C)[C@@H](O[C@@H]3O[C@H](C)C[C@H](N(C)C)[C@H]3O)[C@@](C)(O)C[C@@H](C)[C@H](O)[C@H](C)N3CC(C3)OC(=O)[C@@H]2C)C[C@@]1(C)OC)[C@@H](C)c1ccccc1OC [Example 12]
H. influenzae ATCC 43095
  MIC values (minimum inhibitory concentration): 8 µg/mL (≈ 8.67 µM)
[1]
  MIC values (minimum inhibitory concentration): 0.25 µg/mL (≈ 0.271 µM)
H. influenzae Rd
  MIC values (minimum inhibitory concentration): 8 µg/mL (≈ 8.67 µM)
S. pneumoniae ATCC 49619
  MIC values (minimum inhibitory concentration): 0.03 µg/mL (≈ 0.0325 µM)

## COC1(C)CC(C)C(O)C(C)N2CC(C2)OC(=O)C(C)C(OC2CC(C)(OC)C(O)(CNCCNC(C)(C)c3cccc4c3ccn4C)C(C)O2)C(C)C1OC1OC(C)CC(N(C)C)C1O (stereo not shown) [Example 70]
H. influenzae ATCC 43095
  MIC values (minimum inhibitory concentration): 4 µg/mL (≈ 4.29 µM)
[1]
  MIC values (minimum inhibitory concentration): 0.25 µg/mL (≈ 0.268 µM)
H. influenzae Rd
  MIC values (minimum inhibitory concentration): 4 µg/mL (≈ 4.29 µM)
S. pneumoniae ATCC 49619
  MIC values (minimum inhibitory concentration): 0.12 µg/mL (≈ 0.129 µM)

## COc1ccccc1C(C)(C)N(C)CCN(C)CC1(O)C(C)OC(OC2C(C)C(=O)OC3CN(C3)C(C)C(O)C(C)CC(C)(OC)C(OC3OC(C)CC(N(C)C)C3O)C2C)CC1(C)OC (stereo not shown) [Example 71]
H. influenzae ATCC 43095
  MIC values (minimum inhibitory concentration): 2 µg/mL (≈ 2.13 µM)
[1]
  MIC values (minimum inhibitory concentration): 0.12 µg/mL (≈ 0.128 µM)
H. influenzae Rd
  MIC values (minimum inhibitory concentration): 2 µg/mL (≈ 2.13 µM)
S. pneumoniae ATCC 49619
  MIC values (minimum inhibitory concentration): 0.03 µg/mL (≈ 0.032 µM)

## CCN(CC(C)NCC1(O)C(C)OC(OC2C(C)C(=O)OC3CN(C3)C(C)C(O)C(C)CC(C)(OC)C(OC3OC(C)CC(N(C)C)C3O)C2C)CC1(C)OC)C(C)(C)c1ccccc1OC (stereo not shown) [Example 84]
H. influenzae ATCC 43095
  MIC values (minimum inhibitory concentration): 4 µg/mL (≈ 4.2 µM)
[1]
  MIC values (minimum inhibitory concentration): 0.06 µg/mL (≈ 0.0631 µM)
H. influenzae Rd
  MIC values (minimum inhibitory concentration): 4 µg/mL (≈ 4.2 µM)
S. pneumoniae ATCC 49619
  MIC values (minimum inhibitory concentration): 0.016 µg/mL (≈ 0.0168 µM)

## CCN(CC(CO)NCC1(O)C(C)OC(OC2C(C)C(=O)OC3CN(C3)C(C)C(O)C(C)CC(C)(OC)C(OC3OC(C)CC(N(C)C)C3O)C2C)CC1(C)OC)C(C)c1ccccc1OC (stereo not shown) [Example 107]
H. influenzae ATCC 43095
  MIC values (minimum inhibitory concentration): 4 µg/mL (≈ 4.2 µM)
[1]
  MIC values (minimum inhibitory concentration): 0.06 µg/mL (≈ 0.0629 µM)
H. influenzae Rd
  MIC values (minimum inhibitory concentration): 4 µg/mL (≈ 4.2 µM)
S. pneumoniae ATCC 49619
  MIC values (minimum inhibitory concentration): 0.03 µg/mL (≈ 0.0315 µM)

## COc1cccc2c1CN(CCN(C)CC1(O)C(C)OC(OC3C(C)C(=O)OC4CN(C4)C(C)C(O)C(C)CC(C)(OC)C(OC4OC(C)CC(N(C)C)C4O)C3C)CC1(C)OC)CC2 (stereo not shown) [Example 132]
H. influenzae ATCC 43095
  MIC values (minimum inhibitory concentration): 4 µg/mL (≈ 4.34 µM)
[1]
  MIC values (minimum inhibitory concentration): 1 µg/mL (≈ 1.09 µM)
H. influenzae Rd
  MIC values (minimum inhibitory concentration): 8 µg/mL (≈ 8.68 µM)
S. pneumoniae ATCC 49619
  MIC values (minimum inhibitory concentration): 0.06 µg/mL (≈ 0.0651 µM)

## COc1cccc2c1CCCC2N(C)CCN(C)CC1(O)C(C)OC(OC2C(C)C(=O)OC3CN(C3)C(C)C(O)C(C)CC(C)(OC)C(OC3OC(C)CC(N(C)C)C3O)C2C)CC1(C)OC (stereo not shown) [Example 133]
H. influenzae ATCC 43095
  MIC values (minimum inhibitory concentration): 8 µg/mL (≈ 8.43 µM)
[1]
  MIC values (minimum inhibitory concentration): 0.5 µg/mL (≈ 0.527 µM)
H. influenzae Rd
  MIC values (minimum inhibitory concentration): 16 µg/mL (≈ 16.9 µM)
S. pneumoniae ATCC 49619
  MIC values (minimum inhibitory concentration): 0.12 µg/mL (≈ 0.126 µM)

## COc1ccccc1C(C)(C)N(C)CC1CN(CC2(O)C(C)OC(OC3C(C)C(=O)OC4CN(C4)C(C)C(O)C(C)CC(C)(OC)C(OC4OC(C)CC(N(C)C)C4O)C3C)CC2(C)OC)C1 (stereo not shown) [Example 162]
H. influenzae ATCC 43095
  MIC values (minimum inhibitory concentration): 2 µg/mL (≈ 2.11 µM)
[1]
  MIC values (minimum inhibitory concentration): 0.12 µg/mL (≈ 0.126 µM)
H. influenzae Rd
  MIC values (minimum inhibitory concentration): 2 µg/mL (≈ 2.11 µM)
S. pneumoniae ATCC 49619
  MIC values (minimum inhibitory concentration): 0.03 µg/mL (≈ 0.0316 µM)

## COC1(C)CC(C)C(O)C(C)N2CC(C2)OC(=O)C(C)C(OC2CC(C)(OC)C(O)(CN(C)CCN(C)C(C)c3ccccc3-c3ccccn3)C(C)O2)C(C)C1OC1OC(C)CC(N(C)C)C1O (stereo not shown) [Example 195]
H. influenzae ATCC 43095
  MIC values (minimum inhibitory concentration): 4 µg/mL (≈ 4.12 µM)
[1]
  MIC values (minimum inhibitory concentration): 0.06 µg/mL (≈ 0.0618 µM)
H. influenzae Rd
  MIC values (minimum inhibitory concentration): 8 µg/mL (≈ 8.24 µM)
S. pneumoniae ATCC 49619
  MIC values (minimum inhibitory concentration): 0.03 µg/mL (≈ 0.0309 µM)

## COc1ccccc1C(C)(C)N(C)Cc1cncn1CC1(O)C(C)OC(OC2C(C)C(=O)OC3CN(C3)C(C)C(O)C(C)CC(C)(OC)C(OC3OC(C)CC(N(C)C)C3O)C2C)CC1(C)OC (stereo not shown) [Example 204]
H. influenzae ATCC 43095
  MIC values (minimum inhibitory concentration): 16 µg/mL (≈ 16.7 µM)
[1]
  MIC values (minimum inhibitory concentration): 1 µg/mL (≈ 1.04 µM)
H. influenzae Rd
  MIC values (minimum inhibitory concentration): 16 µg/mL (≈ 16.7 µM)
S. pneumoniae ATCC 49619
  MIC values (minimum inhibitory concentration): 0.03 µg/mL (≈ 0.0312 µM)

## COc1ncccc1C(C)(C)N(C)CCN(C)C[C@@]1(O)[C@H](C)O[C@@H](O[C@H]2[C@H](C)[C@@H](O[C@@H]3O[C@H](C)C[C@H](N(C)C)[C@H]3O)[C@@](C)(O)C[C@@H](C)[C@H](O)[C@H](C)N3CC(C3)OC(=O)[C@@H]2C)C[C@@]1(C)OC [Example 221]
H. influenzae ATCC 43095
  MIC values (minimum inhibitory concentration): 8 µg/mL (≈ 8.66 µM)
[1]
  MIC values (minimum inhibitory concentration): 1 µg/mL (≈ 1.08 µM)
H. influenzae Rd
  MIC values (minimum inhibitory concentration): 8 µg/mL (≈ 8.66 µM)
S. pneumoniae ATCC 49619
  MIC values (minimum inhibitory concentration): 0.06 µg/mL (≈ 0.0649 µM)
